Data from patent US20070010484A1, “Method for treating or inhibiting the effects of injuries or diseases that result in neuronal degeneration and method for promoting neurogenesis” (YEDA RESEARCH AND DEVELOPMENT CO. LTD., priority 2003, published 2007).

Key:
PC12 cells [1] = assay: Neurite outgrowth assay in NGF-stimulated PC12 cells; assay type: cell-based, rat; settings: PC12 cells on collagen, NGF 10 ng/ml, sulfated CSPG-DSs added; mean±SD
Method: PC12 cell line: Rat pheochromocytoma (PC12) cells were cultured in DMEM containing 8% horse serum and either 8% FCS (culture medium) or 1% FCS (differentiation medium), and antibiotics. For assays of neurite outgrowth, the cells were plated (10^5 cell/well) on 13-mm glass coverslips, precoated with collagen (500 μg/ml) in 24-well plates. Neurite outgrowth assays: PC12 cells were cultured for 24-72 h while being stimulated with 10 ng/ml NGF, with or without CSPG-DSs. Cell morphology was visualized under a phase-contrast microscope and neurite lengths were measured using ImagePro. At least 200 cells were measured for each condition.

[2] = system: experimental autoimmune encephalomyelitis in mice; assay: Experimental autoimmune encephalomyelitis (EAE); assay type: in vivo
Method: Induction of experimental autoimmune encephalomyelitis. Mice were immunized s.c. at one site in the flank with 200 μl of emulsion consisting of myelin oligodendrocyte glycoprotein (MOG) […] (300 μg per mouse) emulsified in CFA supplemented with 500 μg of Mycobacterium tuberculosis (Difco, Detroit, Mich.). Clinical symptoms of experimental autoimmune encephalomyelitis (EAE) were examined and scored daily, as follows: 0, no clinical disease; 0.5, piloerection; 1, tail weakness; 1.5, tail paralysis; 2, hindlimb weakness; 3, hindlimb paralysis; 3.5, forelimb weakness; 4, forelimb paralysis; 5, moribund state or death.

human T cells = assay: T-cell adhesion to fibronectin in presence of SDF-1α; assay type: cell-based; settings: 2 h pretreatment prior to SDF-1α, FN-coated plates, relative to untreated T cells
Method: Human T cells. T cells from the peripheral blood of healthy donors were isolated by negative selection using a RosetteSep™ antibody cocktail containing mabs against CD16, CD19, CD36, and CD56 (StemCell Technologies, Vancouver, BC). After incubation with the cocktail for 20 min at room temperature, blood samples were diluted in PBS with 2% fetal bovine serum, loaded on a Ficoll column (ICN Biomedical, Aurora, Ohio), and centrifuged at 1200× g for 20 min at room temperature. The cells were removed from the Ficoll column, washed, and cultured in RPMI containing antibiotics and 10% heat-inactivated FCS. T-cell adhesion assays. Adhesion of T cells to FN was assayed as described (Ariel et al., 1998). Briefly, flat-bottomed microtiter well plates were precoated with CSPG or FN (10 μg/ml) and the remaining binding sites were blocked with 1% BSA. […]-labeled T cells were resuspended in RPMI medium supplemented with 1% HEPES buffer and 0.1% BSA (adhesion medium). After preincubation 2 h with CSPG-DS at the indicated concentrations, the T cells were incubated (30 min, 37° C., humidified atmosphere of 7% CO2 in air) with SDF-1α and then added to the wells. […] Adherent cells were lysed with lysis buffer (1 M NaOH, 0.1% Triton X-100 in H2O), removed, and counted with a γ-counter (Packard, Downers Grove, Ill.).

[3] = system: retinal ganglion cells (RGCs); assay: Chronically high intra-ocular pressure (laser-induced glaucoma) rat model, RGC survival; assay type: in vivo, Lewis rats; settings: chronic IOP rats
Text: Induction of chronically high intra-ocular pressure: Blockage of aqueous outflow causes an increase in IOP, which results in RGC death (Schori et al., 2001 and Bakalash et al., 2002). […] The laser beam, which was directed at three of the four episcleral veins and at 270 degrees of the limbal plexus, was applied with a power of 1 watt for 0.2 s, producing a spot size of […] at the episcleral veins and […] at the limbal plexus. At a second laser session 1 week later, the same parameters were used except that the spot size was […] for all applications, this time the radiation was directed towards all four episcleral veins and 360 degrees of the limbal plexus (Schori et al., 2001).
Anatomical assessment of retinal damage caused by the increase in IOP: The hydrophilic neurotracer dye dextran tetramethylrhodamine (Rhodamine Dextran) (Molecular Probes, Oreg., USA) was applied directly into the intra-orbital portion of the optic nerve. […] RGCs were counted under magnification of ×800 in a Zeiss fluorescent microscope. Four fields from each retina were counted, all with the same diameter (0.076 mm^2) and located at the same distance from the optic disc (Kipnis et al., 2001; and Yoles et al., 2001). […] RGCs were counted by an observer who was blinded to the identity of the retinas. […]

PC12 cells [4] = assay: PC12 cell viability after glutamate, XTT assay; assay type: cell-based, rat; settings: disaccharides 1 to 50 μg/ml for 45 min, glutamate 10^−3 M 15 min, XTT after 24 h
Method: PC12 cell line. Rat pheochromocytoma (PC12) cells were cultured in DMEM containing horse serum and FCS, both at 8% (culture medium) or at 1% (differentiation medium).
Cell viability assay. PC12 cells were seeded on collagen-coated 96-well plates at a density of 10^4 cells per well (in differentiation medium containing 100 ng/ml NGF). The cells were incubated with CSPG-DS or other disaccharides at the indicated concentrations for 45 min, then washed with PBS and exposed to glutamate (10^−3 M) for 15 min. The glutamate solution was washed away and replaced with DMEM for a further 24 h of incubation. The number of viable cells was then determined with the XTT viability kit according to the manufacturer's instructions.

MHC II = MHC II expression in microglia; assay type: cell-based
[5] = MOG-immunized mice, 5 μg injections on days 0, 3, 5 and 7

CC(=O)N[C@H]1C(O)O[C@H](COS(=O)(=O)O)[C@H](O)[C@@H]1O[C@@H]1OC(C(=O)O)=C[C@H](O)[C@H]1O (stereo partly drawn) [CSPG-DS, 2-acetoamido-2-deoxy-3-O-(β-D-gluco-4-enepyranosyluronic acid)-6-O-sulfo-D-galactose]
mean neurite length (PC12 cells [1]): 107±7.8 μm
duration of the disease (EAE) [2, 5]: shortened
symptoms of the disease (EAE score) [2, 5]: significantly attenuated
EAE disease with less frequent injections ([2]; injection on day 0 only, or days 0 and 7): alleviated the disease
T-cell adhesion (human T cells): significantly reduced
viable RGCs per mm^2 ([3]; eye drops 20 μg/ml (5 x 50 μl), every other day between day 7 and day 14, counted at three weeks, n=6): 1924±191 RGCs per mm^2
viable RGCs per mm^2 ([3]; intravenous, every other day between day 7 and day 14 after first laser session, n=5): 2063±215 RGCs per mm^2
survival of PC12 cells exposed to glutamate (PC12 cells [4]): protected PC12 cells from glutamate toxicity
MHC II expression in microglia (MHC II): activate microglia to express MHC II
